Data as given in patent US11174251B2, “Compositions and methods for inhibition of the JAK pathway” (Rigel Pharmaceuticals, Inc., priority 2010, dated 2021).
Structures can show the parent of a compound that is named as a salt.

Target: T1, JAK3 (Homo sapiens, UniProt P52333)
T1 construct: The Ramos B-cell line was acquired from ATCC (ATCC Catalog No. CRL-1596); host or cells: Ramos B-cell line (human)
T1 sequence (P52333 1-1124): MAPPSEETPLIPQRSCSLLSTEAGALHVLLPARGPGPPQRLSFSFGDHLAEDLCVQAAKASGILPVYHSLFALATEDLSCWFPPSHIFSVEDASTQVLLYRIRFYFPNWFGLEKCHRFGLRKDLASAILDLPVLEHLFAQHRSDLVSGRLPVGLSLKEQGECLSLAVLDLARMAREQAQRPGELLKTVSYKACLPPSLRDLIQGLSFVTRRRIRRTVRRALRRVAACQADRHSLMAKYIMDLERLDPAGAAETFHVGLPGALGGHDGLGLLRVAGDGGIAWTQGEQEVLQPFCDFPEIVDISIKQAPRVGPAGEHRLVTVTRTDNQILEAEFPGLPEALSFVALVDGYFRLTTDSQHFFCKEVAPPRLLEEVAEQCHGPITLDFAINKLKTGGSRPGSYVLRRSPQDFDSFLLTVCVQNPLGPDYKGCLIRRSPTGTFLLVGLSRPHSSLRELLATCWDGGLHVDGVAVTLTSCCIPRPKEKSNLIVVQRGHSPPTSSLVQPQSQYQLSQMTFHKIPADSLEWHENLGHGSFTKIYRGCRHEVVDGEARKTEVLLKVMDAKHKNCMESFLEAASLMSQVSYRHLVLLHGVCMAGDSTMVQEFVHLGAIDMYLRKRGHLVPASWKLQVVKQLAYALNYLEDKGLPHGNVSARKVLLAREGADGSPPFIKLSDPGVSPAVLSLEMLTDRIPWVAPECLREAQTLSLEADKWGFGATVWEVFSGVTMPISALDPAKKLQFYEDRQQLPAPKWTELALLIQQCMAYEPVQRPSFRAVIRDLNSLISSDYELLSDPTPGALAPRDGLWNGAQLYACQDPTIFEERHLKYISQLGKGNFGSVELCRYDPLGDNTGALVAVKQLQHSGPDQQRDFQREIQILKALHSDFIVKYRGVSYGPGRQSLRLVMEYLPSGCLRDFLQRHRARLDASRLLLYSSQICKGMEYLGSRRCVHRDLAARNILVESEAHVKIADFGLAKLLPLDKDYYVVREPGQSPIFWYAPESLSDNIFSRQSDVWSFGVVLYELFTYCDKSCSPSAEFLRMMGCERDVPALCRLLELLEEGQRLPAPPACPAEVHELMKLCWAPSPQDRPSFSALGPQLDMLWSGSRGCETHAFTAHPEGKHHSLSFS
Test: Assay for CD23 expression on Ramos B-cells stimulated by IL-4 (Table IV: ability to inhibit JAK3 activity)
Assay type: cell-based
Settings: tested under conditions described in Example 3 (so in the source)
Method in brief: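 Human Ramos B cells in RPMI with 5% serum, pre-incubated 1 h at 37 °C with compound or DMSO, then stimulated with IL-4 (final 50 units/mL) for 20–24 h. Surface CD23 upregulation measured by FACS staining as readout of JAK1/JAK3–Stat-6 signalling.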

Compound	IC50
O=C1CCCCc2cc(Nc3ncc(F)c(Nc4ccc5oc(=O)[nH]c5c4)n3)ccc21 [II-5, 5-(5-fluoro-2-(5-oxo-6,7,8,9-tetrahydro-5H-benzo[7]annulen-2-ylamino)pyrimidin-4-ylamino)benzo[d]oxazol-2(3H)-one formate salt]	< 500 nM
Cc1cnc(Nc2cc(C)c(C)c(C)c2)nc1Nc1cc(CN2CCNCC2)c2oc(=O)[nH]c2c1 [Compound I-95, 5-(2-(3,4,5-trimethylphenylamino)-5-methylpyrimidin-4-ylamino)-7-((piperazin-1-yl)methyl)benzo[d]oxazol-2(3H)-one ditrifluoroacetate salt]	5000 to 10000 nM
O=c1[nH]c2cc(Nc3nc(Nc4ccccc4)ncc3Cl)ccc2o1 [Compound I-4, 5-(5-chloro-2-(phenylamino)pyrimidin-4-ylamino)benzo[d]oxazol-2(3H)-one trifluoroacetate salt]	< 500 nM
CCc1ccc(Nc2ncc(Cl)c(Nc3ccc4oc(=O)[nH]c4c3)n2)c(F)c1OC [Compound I-71, 5-(5-chloro-2-(4-ethyl-2-fluoro-3-methoxyphenylamino)pyrimidin-4-ylamino)benzo[d]oxazol-2(3H)-one trifluoroacetate salt]	< 500 nM
Cc1ccc(Nc2ncc(Cl)c(Nc3ccc4oc(=O)[nH]c4c3)n2)cc1N(C)C [Compound I-33, 5-(5-chloro-2-(3-(dimethylamino)-4-methylphenylamino)pyrimidin-4-ylamino)benzo[d]oxazol-2(3H)-one]	< 500 nM
COCCOc1c(C)ccc(Nc2nccc(Nc3ccc4oc(=O)[nH]c4c3)n2)c1F [Compound I-62, 5-(2-(2-fluoro-3-(2-methoxyethoxy)-4-methylphenylamino)pyrimidin-4-ylamino)benzo[d]oxazol-2(3H)-one]	500 to 5000 nM
COc1ccc(Nc2ncc(C)c(Nc3ccc4oc(=O)[nH]c4c3)n2)c(F)c1 [Compound I-75, 5-(2-(2-fluoro-4-methoxyphenylamino)-5-methylpyrimidin-4-ylamino)benzo[d]oxazol-2(3H)-one trifluoroacetate salt]	< 500 nM
Cc1cnc(Nc2cc(C)c(C)c(C)c2)nc1Nc1cc(CN2CCCC2)c2oc(=O)[nH]c2c1 [Compound I-91, 5-(2-(3,4,5-trimethylphenylamino)-5-methylpyrimidin-4-ylamino)-7-((pyrrolidin-1-yl)methyl)benzo[d]oxazol-2(3H)-one]	500 to 5000 nM

Now from value to compound:

IC50	Compound
< 500 nM	CN1CCN(c2cc(F)cc(Nc3ncc(F)c(Nc4ccc5oc(=O)[nH]c5c4)n3)c2)CC1 [Compound I-170, 5-(2-(3-fluoro-5-(4-methylpiperazin-1-yl)phenylamino)-5-fluoropyrimidin-4-ylamino)benzo[d]oxazol-2(3H)-one ditrifluoroacetate salt]
< 500 nM	COc1ccc(Nc2ncc(F)c(Nc3cc(F)c4oc(=O)[nH]c4c3)n2)cc1C [Compound I-180, 5-(2-(4-methoxy-3-methylphenylamino)-5-fluoropyrimidin-4-ylamino)-7-fluorobenzo[d]oxazol-2(3H)-one trifluoroacetate salt]
500 to 5000 nM	Cc1cnc(Nc2cc(C)c(F)c(C(=O)O)c2)nc1Nc1ccc2oc(=O)[nH]c2c1 [Compound I-155, N2-(3-carboxy-4-fluoro-5-methyl)phenyl-5-methyl-N4-(2-oxo-2,3-dihydro-1,3-benzoxazol-5-yl)-2,4-pyrimidinediamine]
< 500 nM	COc1cc(Nc2ncc(F)c(Nc3cc(C)c4oc(=O)[nH]c4c3)n2)cc(C)c1C [Compound I-110, 5-(5-fluoro-2-(3-methoxy-4,5-dimethylphenylamino)pyrimidin-4-ylamino)-7-methylbenzo[d]oxazol-2(3H)-one trifluoroacetate salt]
5000 to 10000 nM	Cc1cnc(Nc2cc(C)c(C)c(C)c2)nc1Nc1ccc2oc(=O)n(COP(=O)(O)OCCN(C)C)c2c1 [Compound I-133, N4-{3-[2-(N,N-dimethylamino)ethoxy]phosphinyloxymethyl-2-oxo-2,3-dihydro-1,3-benzoxazol-5-yl}-5-methyl-N2-(3,4,5-trimethyl)phenyl-2,4-pyrimidinediamine]
